According to US8952024B2, “Herbicidal pyrimidone derivatives” (E I du Pont de Nemours and Company, priority 2009, dated 2015):

Columns and labels:
Type in all cases: in vivo
[1] = test system: cocklebur (Xanthium strumarium); experiment: Test B pre-/postemergence plant response; conditions: for Cocklebur plant response rating (0 to 100 scale): 0 is no effect, 13 to 15 days
Outline: (§1)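 Greenhouse herbicide screen. Pre- and postemergence (1- to 4-leaf) spray of compound in solvent/surfactant mixture; loam–sand soil for pre, peat/vermiculite medium for post. Visual control rating 0–100 at 13 to 15 days after treatment.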

[2] = test system: goosegrass (Eleusine indica); experiment: Test B pre-/postemergence plant response; conditions: for Goosegrass plant response rating (0 to 100 scale): 0 is no effect, 13 to 15 days
Outline: as §1

[3] = test system: johnsongrass (Sorghum halepense); experiment: Test B pre-/postemergence plant response; conditions: for Johnsongrass plant response rating (0 to 100 scale): 0 is no effect, 13 to 15 days
Outline: as §1

kochia (Kochia scoparia) = experiment: Test B pre-/postemergence plant response; conditions: for Kochia plant response rating (0 to 100 scale): 0 is no effect, 13 to 15 days
Outline: as §1

[4] = test system: pigweed (Amaranthus retroflexus); experiment: Test B pre-/postemergence plant response; conditions: for Pigweed plant response rating (0 to 100 scale): 0 is no effect, 13 to 15 days
Outline: as §1

[5] = test system: ragweed (common ragweed, Ambrosia elatior); experiment: Test B pre-/postemergence plant response; conditions: for Ragweed plant response rating (0 to 100 scale): postemergence, 0 is no effect, 100 is complete control, 13 to 15 days
Outline: as §1

soybean (Glycine max) = experiment: Test B pre-/postemergence plant response; conditions: for Soybean plant response rating (0 to 100 scale): postemergence, 0 is no effect, 100 is complete control, 13 to 15 days
Outline: as §1

[6] = test system: velvetleaf (Abutilon theophrasti); experiment: Test B pre-/postemergence plant response; conditions: for Velvetleaf plant response rating (0 to 100 scale): postemergence, 0 is no effect, 100 is complete control, 13 to 15 days
Outline: as §1

[7] = test system: wheat (Triticum aestivum); experiment: Test B pre-/postemergence plant response; conditions: for Wheat plant response rating (0 to 100 scale): postemergence, 0 is no effect, 100 is complete control, 13 to 15 days
Outline: as §1

wild oat (Avena fatua) = experiment: Test B pre-/postemergence plant response; conditions: for Oat, Wild plant response rating (0 to 100 scale): 0 is no effect, 13 to 15 days
Outline: as §1

[8] = test system: canarygrass (Phalaris minor); experiment: Test B postemergence plant response; conditions: for Canarygrass plant response rating (0 to 100 scale): 62 g ai/ha, 0 is no effect, 13 to 15 days
Outline: (§2)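 Plants at the 1- to 4-leaf stage (2 to 18 cm tall), grown in pots of peat moss/vermiculite medium with wetting agent and starter nutrients, received postemergence applications of test chemicals. After 13 to 15 days in a greenhouse, injury was rated visually against untreated controls on a 0 (no effect) to 100 (complete control) scale.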

[9] = test system: chickweed (Stellaria media); experiment: Test B postemergence plant response; conditions: for Chickweed plant response rating (0 to 100 scale): 62 g ai/ha, 0 is no effect, 13 to 15 days
Outline: as §2

[10] = test system: windgrass (Apera spica-venti); experiment: Test B postemergence plant response; conditions: for Windgrass plant response rating (0 to 100 scale): 62 g ai/ha, postemergence, 0 is no effect, 100 is complete control, 13 to 15 days; for Plant response rating, Windgrass: Postemergence, 125 g ai/ha, scale 0 to 100 (0 no effect, 100 complete control)
Outline: as §2

[11] = 31 g ai/ha, postemergence, scale 0 to 100, 0 is no effect, 100 is complete control
[12] = 62 g ai/ha, postemergence, 100 is complete control
[13] = Postemergence, 125 g ai/ha, scale 0 to 100 (0 no effect, 100 complete control)
[14] = Postemergence, 250 g ai/ha, scale 0 to 100 (0 no effect, 100 complete control)
[15] = Preemergence, 31 g ai/ha, scale 0 to 100 (0 no effect, 100 complete control)
[16] = Preemergence, 62 g ai/ha, scale 0 to 100 (0 no effect, 100 complete control)
[17] = Preemergence, 125 g ai/ha, scale 0 to 100, 0 no effect, 100 complete control
[18] = Preemergence, 250 g ai/ha, 0 to 100 scale
[19] = postemergence, 100 is complete control

COCCCn1c(-c2cc(F)cc(F)c2)ncc(C(=O)C2=C(O)CCCC2=O)c1=O [Compound 120]
Plant response rating, Cocklebur [1, 11]: 10 | Cocklebur plant response rating (0 to 100 scale) [1, 12]: 15 | Plant response rating, Cocklebur [1, 13]: 25 | Plant response rating, Cocklebur [1, 14]: 80 | Plant response rating, Cocklebur [1, 15]: 0 | Plant response rating, Cocklebur [1, 16]: 35 | Plant response rating, Cocklebur [1, 17]: 60 | Cocklebur plant response rating [1, 18]: 98 | Plant response rating, Goosegrass [2, 11]: 75 | Goosegrass plant response rating (0 to 100 scale) [2, 12]: 80 | Plant response rating, Goosegrass [2, 13]: 85 | Plant response rating, Goosegrass [2, 14]: 98 | Plant response rating, Goosegrass [2, 15]: 100 | Plant response rating, Goosegrass [2, 16]: 100 | Plant response rating, Goosegrass [2, 17]: 100 | Goosegrass plant response rating [2, 18]: 100 | Plant response rating, Johnsongrass [3, 11]: 15 | Johnsongrass plant response rating (0 to 100 scale) [3, 12]: 25 | Plant response rating, Johnsongrass [3, 13]: 75 | Plant response rating, Johnsongrass [3, 14]: 80 | Plant response rating, Johnsongrass [3, 15]: 35 | Plant response rating, Johnsongrass [3, 16]: 70 | Plant response rating, Johnsongrass [3, 17]: 80 | Johnsongrass plant response rating [3, 18]: 90 | Plant response rating, Kochia (kochia (Kochia scoparia); [11]): 10 | Kochia plant response rating (0 to 100 scale) (kochia (Kochia scoparia); [12]): 40 | Plant response rating, Kochia (kochia (Kochia scoparia); [13]): 80 | Plant response rating, Kochia (kochia (Kochia scoparia); [14]): 98 | Plant response rating, Kochia (kochia (Kochia scoparia); [15]): 0 | Plant response rating, Kochia (kochia (Kochia scoparia); [16]): 20 | Plant response rating, Kochia (kochia (Kochia scoparia); [17]): 50 | Kochia plant response rating (kochia (Kochia scoparia); [18]): 75 | Plant response rating, Pigweed [4, 11]: 95 | Pigweed plant response rating (0 to 100 scale) [4, 12]: 98 | Plant response rating, Pigweed [4, 13]: 100 | Plant response rating, Pigweed [4, 14]: 100 | Plant response rating, Pigweed [4, 15]: 95 | Plant response rating, Pigweed [4, 16]: 100 | Plant response rating, Pigweed [4, 17]: 100 | Pigweed plant response rating [4, 18]: 100 | Ragweed plant response rating (0 to 100 scale) ([5]; 62 g ai/ha): 75 | Plant response rating, Ragweed [5, 13]: 75 | Plant response rating, Ragweed [5, 14]: 80 | Plant response rating, Ragweed [5, 15]: 80 | Plant response rating, Ragweed [5, 16]: 80 | Plant response rating, Ragweed [5, 17]: 95 | Ragweed plant response rating [5, 18]: 95 | Soybean plant response rating (0 to 100 scale) (soybean (Glycine max); 62 g ai/ha): 80 | Plant response rating, Soybean (soybean (Glycine max); [13]): 95 | Plant response rating, Soybean (soybean (Glycine max); [14]): 98 | Plant response rating, Soybean (soybean (Glycine max); [15]): 15 | Plant response rating, Soybean (soybean (Glycine max); [16]): 70 | Plant response rating, Soybean (soybean (Glycine max); [17]): 80 | Soybean plant response rating (soybean (Glycine max); [18]): 80 | Velvetleaf plant response rating (0 to 100 scale) ([6]; 62 g ai/ha): 95 | Plant response rating, Velvetleaf [6, 13]: 98 | Plant response rating, Velvetleaf [6, 14]: 100 | Plant response rating, Velvetleaf [6, 15]: 80 | Plant response rating, Velvetleaf [6, 16]: 100 | Plant response rating, Velvetleaf [6, 17]: 100 | Velvetleaf plant response rating [6, 18]: 100 | Wheat plant response rating (0 to 100 scale) ([7]; 62 g ai/ha): 40 | Plant response rating, Wheat [7, 13]: 60 | Plant response rating, Wheat [7, 15]: 0 | Plant response rating, Wheat [7, 16]: 0 | Plant response rating, Wheat [7, 17]: 25 | Wheat plant response rating [7, 18]: 30 | Plant response rating, Oat, Wild (wild oat (Avena fatua); [11]): 50 | Oat, Wild plant response rating (0 to 100 scale) (wild oat (Avena fatua); [12]): 80 | Plant response rating, Oat, Wild (wild oat (Avena fatua); [13]): 80 | Plant response rating, Oat, Wild (wild oat (Avena fatua); [14]): 95 | Plant response rating, Oat, Wild (wild oat (Avena fatua); [15]): 0 | Plant response rating, Oat, Wild (wild oat (Avena fatua); [16]): 10 | Plant response rating, Oat, Wild (wild oat (Avena fatua); [17]): 65 | Oat, Wild plant response rating (wild oat (Avena fatua); [18]): 65 | Plant response rating, Canarygrass [8, 11]: 0 | Canarygrass plant response rating (0 to 100 scale) [8, 19]: 30 | Plant response rating, Canarygrass [8, 13]: 55 | Plant response rating, Canarygrass [8, 14]: 55 | Plant response rating, Chickweed [9, 11]: 60 | Chickweed plant response rating (0 to 100 scale) [9, 19]: 75 | Plant response rating, Chickweed [9, 13]: 85 | Plant response rating, Chickweed [9, 14]: 100 | Windgrass plant response rating (0 to 100 scale) [10]: 80 | Plant response rating, Windgrass [10]: 90

CCCCn1c(-c2cc(F)cc(F)c2)ncc(C(=O)C2=C(O)CCCC2=O)c1=O [Compound 121]
Plant response rating, Cocklebur [1, 11]: 40 | Cocklebur plant response rating (0 to 100 scale) [1, 12]: 45 | Plant response rating, Cocklebur [1, 13]: 85 | Plant response rating, Cocklebur [1, 14]: 100 | Plant response rating, Goosegrass [2, 11]: 95 | Goosegrass plant response rating (0 to 100 scale) [2, 12]: 98 | Plant response rating, Goosegrass [2, 13]: 98 | Plant response rating, Goosegrass [2, 14]: 98 | Plant response rating, Johnsongrass [3, 11]: 20 | Johnsongrass plant response rating (0 to 100 scale) [3, 12]: 70 | Plant response rating, Johnsongrass [3, 14]: 85 | Plant response rating, Kochia (kochia (Kochia scoparia); [11]): 95 | Kochia plant response rating (0 to 100 scale) (kochia (Kochia scoparia); [12]): 100 | Plant response rating, Kochia (kochia (Kochia scoparia); [14]): 100 | Plant response rating, Pigweed [4, 11]: 100 | Pigweed plant response rating (0 to 100 scale) [4, 12]: 100 | Plant response rating, Pigweed [4, 13]: 100 | Plant response rating, Pigweed [4, 14]: 100 | Ragweed plant response rating (0 to 100 scale) ([5]; 62 g ai/ha): 85 | Plant response rating, Ragweed [5, 13]: 90 | Plant response rating, Ragweed [5, 14]: 95 | Soybean plant response rating (0 to 100 scale) (soybean (Glycine max); 62 g ai/ha): 90 | Plant response rating, Soybean (soybean (Glycine max); [13]): 95 | Plant response rating, Soybean (soybean (Glycine max); [14]): 100 | Velvetleaf plant response rating (0 to 100 scale) ([6]; 62 g ai/ha): 98 | Plant response rating, Velvetleaf [6, 13]: 100 | Plant response rating, Velvetleaf [6, 14]: 100 | Wheat plant response rating (0 to 100 scale) ([7]; 62 g ai/ha): 45 | Plant response rating, Wheat [7, 13]: 45 | Plant response rating, Oat, Wild (wild oat (Avena fatua); [11]): 60 | Oat, Wild plant response rating (0 to 100 scale) (wild oat (Avena fatua); [12]): 90 | Plant response rating, Oat, Wild (wild oat (Avena fatua); [13]): 98 | Plant response rating, Oat, Wild (wild oat (Avena fatua); [14]): 98 | Plant response rating, Canarygrass [8, 11]: 0 | Canarygrass plant response rating (0 to 100 scale) [8, 19]: 5 | Plant response rating, Canarygrass [8, 13]: 5 | Plant response rating, Canarygrass [8, 14]: 30 | Plant response rating, Chickweed [9, 11]: 100 | Chickweed plant response rating (0 to 100 scale) [9, 19]: 100 | Plant response rating, Chickweed [9, 13]: 100 | Plant response rating, Chickweed [9, 14]: 100 | Windgrass plant response rating (0 to 100 scale) [10]: 98 | Plant response rating, Windgrass [10]: 100
